We go through three molecules from patent publication US8242152B2, “Use of 4-[(4-thiazolyl)phenoxy]alkoxy-benzamidine derivatives for the prophylaxis and treatment of osteoporosis” (Dong Wha Pharmaceutical Co., Ltd., priority 2001, dated 2012).

The structures appear in SMILES notation. Read-outs that look alike come from different tables or passages of the source.

For assay [1], the system named is osteoclast activity (resorption pits). Briefly: Bone resorption pit formation assay on dentine slice (Example 5). Format: cell-based, mice. Particulars: for inhibition at 0.01 µM / inhibition at 0.1 µM / inhibition at 1 µM: Mus musculus, Osteoclast, dentine slice, 24 h, read-out: Inhibitory activity (%). Here is the method:
Method for evaluating the effects of the compounds on osteoclast activity: Multinucleated osteoclasts were developed on collagen gel plates by co-culture system as described. On day 6-8 of the co-culture, multinucleated OCLs were detached from plates by 0.2% collagenase treatment (“crude OCLs”). Crude OCLs suspended in α-MEM containing 10% FBS were placed on a dentine slice (4 mm diameter) in a 96-well culture plate. […] At the end of the incubation, cells were removed by 1 M NH4OH treatment and resorption pits formed (in the slices stained with Mayer's hematoxylin). Resorption pits were enumerated with an image analyzer and compared to the control group.

Assay [2] deals with osteoclast fusion. The assay can be described thus: Fusion assay of prefusion osteoclasts (Example 2). Format: cell-based, mice. The note with it: Mus musculus, Osteoclast, 24 hrs; for inhibition at 0.08 µM / inhibition at 0.4 µM / inhibition at 2 µM / inhibition at 10 µM: read-out: Inhibitory action (%). The source says: This assay is designed to evaluate the influences of each test substance in terms of osteoclast fusion during the differentiation process in which immature prefusion osteoclasts (pOC; osteoclast structure with one more nuclei) were transformed into mature multinucleated osteoclast (OCL) via cell to cell fusion (Gregg Wesolowski et al. Experimental Cell Research 219,679-686, 1995).
The prefusion osteoclast can be obtained via co-culture of both bone marrow cells and osteoblast, as prepared from Example 1. The mixture of both osteoblast (about 5×10^5 cells/plate) and bone marrow cells (about 1×10^7 cells/plate) were co-cultured in a 100 mm culture dish. Some differentiation factors, such as dexamethasone (10^−6M) and vitamin D3 (10^−9M), were added to the medium from the first day of culture. The medium was changed with a fresh medium containing differentiation factors every 2 days.
Since a great number of the prefusion osteoclasts having one or more nuclei in fusion process were formed during 4-day co-culture, the cells were separated and co-cultivation after 4 days. The medium was removed from the cells and with the addition of 0.2% collagenase solution (4 mL), the cells were incubated at 37° C. for 20 mins to separate the attachment cells. Since the majority of separated cells were osteoblasts, all osteoblasts were washed with PBS solution two or three times for their complete removal.
After the remaining prefusion osteoclasts were separated via reaction for 20 mins with the addition of echistatin containing 10% BSA, the cells were harvested by centrifuge.
The test substances diluted at each concentration were diluted at the desired concentration in α-MEM medium (addition of 10% FBS) to load them into a 96-well microplate in a dose of 100 uL per well. The osteoclastic monocytes, so separated from the preceding No. 1, were plated on a 96-well microplate in a dose of 5×10^3 cell/100 uL per well and cultured at 37° C. for 24 hrs, thus successfully resulting in the osteoclast fusion. In the case of specimen-free and positive controls, experiments were performed in the same manner as above.
The medium was removed from the cells and then the cells were washed once with PBS and fixed to a PBS solution containing 10% formalin for about 5 mins. The cells were again fixed to both ethanol and acetone (1/1) in a mixing solution for about 5 mins and dried off. The cells were further treated by TRAP staining solution for 15 mins and washed with water to observe the cells under the microscope. The TRAP-positive osteoclast counts, which were differentiated from monocyte to multinucleated cells (osteoclast having more than 10 nuclei) via fusion process, were measured.

Assay [3] concerns Primary osteoblastic cells. Briefly: ALP activity in primary osteoblastic cells (Example 5). Format: cell-based, ICR mice. Particulars: 3 days. As to the method:
Primary osteoblastic cells isolated from the calvariae of newborn ICR mice were grown to confluence in α-MEM containing 10% FBS. These cells were plated at a density of 1×10^5/ml in tissue culture dishes. After 24 h, cells were changed with a differentiation medium containing ascorbic acid (50 ug/ml) and β-glycerophosphate (10 mM) with or without the compounds and further cultured for 3 days. Cells were washed twice with PBS and harvested. For the measurement of ALP activity and total protein content, cells were extracted into 0.1% Triton X-100 in PBS containing 1 mM MgCl2 and centrifuged at 1.000×g for 5 minutes. Enzyme activity was determined in supernatants by colorimetric procedure using p-nitrophenyl phosphate (PNP) as a substrate at a wavelength of 405 nm and the protein content was determined by a Bio-Rad protein assay kit. The ALP unit was expressed as nmol PNP/ug protein/min.

Assay [4] has as its system osteoclast differentiation. The assay can be described thus: Osteoclast differentiation, co-culture, TRAP(+)MNCs (Example 5). Format: cell-based, mice. The note with it: for inhibition at 0.01 µM / inhibition at 0.1 µM / inhibition at 1 µM: Mus musculus, Osteoclast, 144 h, day 6, read-out: % inhibitory action. As to the method: To investigate the effect of compounds on osteoclast differentiation, co-culture between bone marrow cells (2.5×10^5 cells/cm^2) and calvaria-derived osteoblastic cells (4×10^4 cells/cm^2) was conducted in the presence of 1.25(OH)2D3(10^−8 M) and dexamethasone (10^−7 M) with α-MEM containing 10% FBS (referred as “osteoclastic medium”). Bone marrow cells were isolated from the femora of 6-week-old ddY mice and primary osteoblastic cells were isolated from the calvariae of newborn ICR mice by sequential digestion with 0.2% collagenase. The medium was changed every two days with fresh osteoclastic medium. An index of osteoclast formation was determined by counting TRAP-positive multinucleated osteoclasts (TRAP(+)MNCs). On day 6, the cells were fixed with 10% formaldehyde and stained for TRAP. The number of TRAP(+) MNCs containing more than 6-7 nuclei was counted under a microscope (ZEISS Axiovert 25, Switzerland). The results are shown as the relative inhibitory activity (% inhibition) compared to the control group.

A further assay concerns the target LTB4 receptor (Homo sapiens, UniProt Q15722). The arrangement: endogenous in cells; host or cells: human neutrophils (PMN) purified from fresh blood. The note with it: cited from earlier work.
Assay [5] relates to osteoclast fusion. Briefly: Osteoclast fusion assay with purified prefusion osteoclasts (Example 5). Format: cell-based, mice. The note with it: for inhibition at 0.08 µM / inhibition at 0.4 µM / inhibition at 2 µM / inhibition at 10 µM: read-out: Inhibitory action (%). As to the method: The effect of the compounds on the fusion of osteoclasts was examined using purified prefusion osteoclasts (pOC, mononuclear and binuclear osteoclasts). Co-cultures of bone marrow cells (2×10^7 cells/dish) and newborn mice calvariae (1×10^6 cells/dish) were maintained in 100-mm-diameter dishes for 4 days with osteoclast differontiarion factor. Cultures were washed twice with PBS and treated with 0.1% collagenase/dispase at 37° C. for 20 minutes. Released cells, mostly osteoblasts, were removed with a pipet and the plates were washed three times with PBS. The remaining cells were incubated with 30 uM echistatin in α-MEM containing 1% BSA for 20 min at 37° C. These cells were collected, pelleted, and washed once with α-MEM containing 10% FBS. The cells released by this treatment were the subject of the fusion assay. More than 90% of the cells in the pOCs preparation used in the present study were positive for TRAP.
pOCs (15,000 cells/well) were plated on 96 well culture plates with or without various compounds. After culture for 18 hours, the cells were fixed and stained for TRAP.

The mark [6] stands for this setting: Mus musculus, Osteoclast, 18 hours.

Sequence of LTB4 receptor (Q15722 whole entry, the tested form may be a part): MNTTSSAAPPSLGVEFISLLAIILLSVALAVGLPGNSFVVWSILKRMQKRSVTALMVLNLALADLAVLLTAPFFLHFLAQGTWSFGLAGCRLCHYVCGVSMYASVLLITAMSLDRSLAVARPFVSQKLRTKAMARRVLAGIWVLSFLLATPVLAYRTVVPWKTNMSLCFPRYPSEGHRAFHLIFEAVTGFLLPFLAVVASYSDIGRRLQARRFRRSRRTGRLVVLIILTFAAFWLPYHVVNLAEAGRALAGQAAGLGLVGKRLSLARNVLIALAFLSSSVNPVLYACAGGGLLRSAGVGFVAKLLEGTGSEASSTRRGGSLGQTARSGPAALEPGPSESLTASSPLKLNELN

Take `Cc1nc(-c2ccc(OCCCCOc3ccc(C(=N)N)cc3)cc2)c(C(C)C)s1` [DW1351, 4-{4-[4-(5-isopropyl-2-methyl-1,3-thiazol-4-yl)phenoxy]butoxy}-benzamidine]: in assay [1], the inhibition at 0.01 µM is 2.1%, the inhibition at 0.1 µM amounted to 26.7% and the inhibition at 1 µM is 51.8%. In the assay on osteoclast fusion [2], the inhibition at 0.08 µM was 0%, the inhibition at 0.4 µM was determined as 0%, the inhibition at 2 µM was found to be 38% and the inhibition at 10 µM was determined as 74%. Moreover, in assay [3] (0.01 uM), the “ALP activity (% of control)” value was 122.5 % of control and the “ALP activity (Unit)” value is given as 20.8 nmol PNP/ug protein/min. Also, in assay [3] (0.1 uM), the “ALP activity (% of control)” value is given as 121.2 % of control and the “ALP activity (Unit)” value came out at 21.0 nmol PNP/ug protein/min. Also, in assay [4], the inhibition at 0.01 µM worked out at 23%, the inhibition at 0.1 µM was 30.6% and the inhibition at 1 µM came out at 61.5%. Also, on LTB4 receptor (100 nM), the “Inhibition (%) of LTB4 receptor binding” value is recorded as 89%. For the same molecule, the “Inhibition (%) of LTB4 receptor binding” value at LTB4 receptor (1 uM) is 100%. Also, in the assay with osteoclast fusion [5] (setting [6]), the inhibition at 0.08 µM is 0%, the inhibition at 0.4 µM worked out at 0%, the inhibition at 2 µM was 38% and the inhibition at 10 µM turned out to be 74%.

In the case of `Cc1nc(-c2ccc(OCCCCCOc3ccc(C(=N)N)cc3)cc2)c(C(C)C)s1` [DW1352, 4-{5-[4-(5-isopropyl-2-methyl-1,3-thiazol-4-yl)phenoxy]pentoxy}-benzamidine], in assay [1], the inhibition at 0.01 µM is 21.7%, the inhibition at 0.1 µM was 36% and the inhibition at 1 µM stood at 64.1%. The “times more inhibition of osteoclast activity than DW1351” value in assay [1] (versus DW1351, Table 10) was “about 1.35 times”. In the assay on osteoclast fusion [2], the inhibition at 0.08 µM turned out to be 5.13%, the inhibition at 0.4 µM worked out at 24.7%, the inhibition at 2 µM is 87.2% and the inhibition at 10 µM is 99%. In the assay on osteoclast fusion [2], this molecule returned an IC50 of 740 nM. Moreover, in assay [3] (0.01 uM), the “ALP activity (% of control)” value is listed as 113.0 % of control and the “ALP activity (Unit)” value came to 19.2 nmol PNP/ug protein/min. In assay [3] (0.1 uM), the “ALP activity (% of control)” value was 111.7 % of control and the “ALP activity (Unit)” value worked out at 19.1 nmol PNP/ug protein/min. Further, in assay [4], the inhibition at 0.01 µM was 27.1%, the inhibition at 0.1 µM amounted to 41.3% and the inhibition at 1 µM was 80.9%. For the same molecule, in assay [4] (versus DW1351, Table 8), the “times stronger inhibition of osteoclast differentiation than DW1351” value is “about 1.35 times”. Further, the “Inhibition (%) of LTB4 receptor binding” value on LTB4 receptor (100 nM) was 88%. For the same molecule, the “Inhibition (%) of LTB4 receptor binding” value at LTB4 receptor (1 uM) is listed as 100%. Moreover, in the assay with osteoclast fusion [5] (setting [6]), the inhibition at 0.08 µM came to 5.13%, the inhibition at 0.4 µM is 24.7%, the inhibition at 2 µM was 87.2% and the inhibition at 10 µM was 99%. Also, the IC50 in the assay with osteoclast fusion [5] (setting [6]) stood at 740 nM. The “times more inhibition of osteoclast fusion than DW1351” value in the assay with osteoclast fusion [5] (versus DW1351) was found to be 2.3 times.

With `COc1cc(C(=O)N(C(C)C)C(C)C)ccc1OCCCCOc1ccc2c(N)noc2c1` [HS1141, N,N-diisopropyl-4-[4-(3-aminobenzo[d]isooxazole-6-yloxy)butoxy]-3-methoxybenzamide], in assay [1], the inhibition at 0.01 µM worked out at 8.2%, the inhibition at 0.1 µM is 22.7% and the inhibition at 1 µM came out at 52.7%. For the same molecule, in the assay on osteoclast fusion [2], the inhibition at 0.08 µM turned out to be 2.1%, the inhibition at 0.4 µM was 12.3%, the inhibition at 2 µM turned out to be 15.7% and the inhibition at 10 µM worked out at 36.3%. Moreover, in assay [3] (0.01 uM), the “ALP activity (% of control)” value is listed as 117.3 % of control and the “ALP activity (Unit)” value stood at 19.9 nmol PNP/ug protein/min. For the same molecule, in assay [3] (0.1 uM), the “ALP activity (% of control)” value was 120.9 % of control and the “ALP activity (Unit)” value was found to be 21.0 nmol PNP/ug protein/min. In assay [4], the inhibition at 0.01 µM stood at 11.4%, the inhibition at 0.1 µM stood at 36.4% and the inhibition at 1 µM was found to be 72.9%. Further, at LTB4 receptor (1 uM), the “Inhibition (%) of LTB4 receptor binding” value was 100%. For the same molecule, in the assay on osteoclast fusion [5] (setting [6]), the inhibition at 0.08 µM came out at 2.1%, the inhibition at 0.4 µM was found to be 12.3%, the inhibition at 2 µM turned out to be 15.7% and the inhibition at 10 µM is 36.3%.
